Measured values taken from paper PMC9940851, “Seleno Containing Compounds as Potent and Selective Antifungal Agents” (ACS Infectious Diseases, 2022).
Values after ≈ are worked out from the molar mass of the structure shown.

How the values were obtained:
[1] = molecular target: T1, MpaCA (Malassezia pachydermatis, UniProt A0A0M8MPA4); assay: stopped-flow CO2 hydrase assay; format: biochemical
T1 construct: gene Malapachy_3798
T1 sequence (A0A0M8MPA4 1-242): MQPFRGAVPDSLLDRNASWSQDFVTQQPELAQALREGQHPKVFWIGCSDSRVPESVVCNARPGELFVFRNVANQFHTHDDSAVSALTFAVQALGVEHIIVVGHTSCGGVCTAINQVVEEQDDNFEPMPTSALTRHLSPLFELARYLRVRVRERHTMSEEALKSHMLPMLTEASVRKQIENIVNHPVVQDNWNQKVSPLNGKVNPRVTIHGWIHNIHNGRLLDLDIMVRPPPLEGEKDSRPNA

[2] = tested on: T2, M. pachydermatis DSMZ 6172; assay: microbe, parasite or virus in culture; design: broth microdilution MIC, M. pachydermatis and Candida, 35 °C; details: Malassezia pachydermatis, DSMZ6172
T2 construct: DSMZ 6172 (CDC 16334)
Method: (§1) Inoculum preparations for antifungal assays were performed following the CLSI guidelines for antifungal susceptibility testing of yeasts.[31] Antifungal activity was evaluated on unicellular yeasts Candida albicans ATCC 10231, Candida glabrata ATCC 90030 (DSMZ 11226), Malassezia pachydermatis CDC 16334 (DSMZ 6172), Malassezia globosa ATCC MYA 4612, and Malassezia furfur ATCC 14521. All the fungal strains were stored at −80 °C in cryovials. Then Candida spp. and Malassezia pachydermatis were reactivated in RPMI 1640 broth for 24–48 h at 35 °C. The so obtained fresh cultures were streaked onto Sabouraud dextrose agar and incubated for 24–48 h at 35 °C. Malassezia globosa and furfur were reactivated in modified RPMI 1640 broth[32] for 24–48 h at 35 °C (M. furfur) and 33 °C (M. globosa), and then the cultures were streaked onto Leeming and Notman agar (MLNA) and incubated for 48–72 h at 35 °C for M. furfur and at 33 °C for M. globosa. The fungal inoculum for the testing was prepared by suspending in phosphate buffer (PB) 10 mM pH 7 4–5 colonies of about 1 mm diameter. The fungal suspension was then adjusted to a final optical density of 0.5 McFarland standard (1–5 × 10^6 cells/mL). The compound solutions were tested in a range of concentrations from 0.01 μg/mL to 256 μg/mL, and 50 μL were then added in 96 wells microtiter plates with 50 μL of fungal inoculum and incubated for 24–48 h at 35 °C. Growth and sterility controls were performed. […] Compounds 3a, 3c, 5b, 7a–d, 9c, 11e, 11i, and 14a,b were selected as representatives of the chemical moieties synthesized prior to their screen on yeasts of biomedical relevance such as M. pachydermatis DSMZ 6172, C. albicans ATCC 10231, and C. glabrata ATCC 90030 (DSMZ 11226) strains. The clinical used drugs Ketoconazole, SeS2, and Amphotericin B were included as references (Table 1).

[3] = tested on: T3, ATCC M. furfur 14521; assay: microbe, parasite or virus in culture; details: Malassezia furfur
T3 construct: ATCC 14521
Method: as §1

[4] = tested on: T4, M. globosa ATCC MYA 4612; assay: microbe, parasite or virus in culture; details: Malassezia globosa
T4 construct: ATCC MYA 4612
Method: as §1

[5] = molecular target: T5, MgCA (Malassezia globosa, UniProt A8Q1N3); assay: biochemical; design: stopped-flow CO2 hydration assay, phenol red absorbance at 557 nm, 15 min preincubation, Cheng-Prusoff KI
T5 construct: gene MGL_1814
T5 sequence (A8Q1N3 1-241): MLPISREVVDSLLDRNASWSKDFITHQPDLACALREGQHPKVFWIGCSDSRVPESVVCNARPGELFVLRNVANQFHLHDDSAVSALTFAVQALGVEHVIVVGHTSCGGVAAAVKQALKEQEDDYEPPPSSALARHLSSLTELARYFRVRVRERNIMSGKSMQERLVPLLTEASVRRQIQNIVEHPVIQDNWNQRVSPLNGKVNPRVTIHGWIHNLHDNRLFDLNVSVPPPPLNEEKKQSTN
Method: Enzyme concentrations ranged between 5 and 12 nM. […] The presence of the sulfonamide moiety (i.e., either primary/secondary) within our scaffolds prompted us to investigate whether the compounds listed in this study were endowed with modulation features against the enzymatic metalloenzyme carbonic anhydrases (CAs, EC 4.2.1.1) expressed in Malassezia spp. of interest such as M. pachydermatis (MpaCA), M. globosa (MgCA), and M. restricta (MreCA). […] The obtained activities in Table 3 were all reported as KI values.

[6] = molecular target: T5, MgCA; assay: stopped-flow CO2 hydrase assay; format: biochemical
How it was run: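 Recombinant carbonic anhydrase (5–12 nM) was preincubated with inhibitor for 15 min at room temperature. CO2 hydration (1.7–17 mM CO2) was then followed by stopped-flow using 0.2 mM phenol red at 557 nm in 20 mM Hepes pH 7.4 with 20 mM Na2SO4, over 10–100 s. Initial rates came from at least six traces, minus uncatalysed rates, and at least three determinations were averaged. Ki was obtained by nonlinear least-squares fitting with the Cheng-Prusoff equation.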

[7] = tested on: C. albicans; assay: microbe, parasite or virus in culture; design: broth microdilution MIC, M. pachydermatis and Candida, 35 °C; details: Candida albicans
Method: as §1

[8] = tested on: T6, C. glabrata DSMZ 11226; assay: microbe, parasite or virus in culture; design: broth microdilution MIC, M. pachydermatis and Candida, 35 °C; details: Nakaseomyces glabratus, DSMZ11226
T6 construct: DSMZ 11226 (ATCC 90030)
Method: as §1

## NS(=O)(=O)c1ccc(C[Se]c2ccc(NC(=[Se])NC(=O)c3cc(Br)cc(OC(F)(F)F)c3)cc2)cc1 [compound 12, 3-Bromo-N-((4-((4-sulfamoylbenzyl)selanyl)phenyl)carbamoselenoyl)-5-(trifluoromethoxy)benzamide]
[1]
  Ki: 71.6 µM
[2]
  MIC: 6.7 ± 2.3 µg/mL (≈ 9.38 µM)
[3]
  MIC: 128 µg/mL (≈ 179 µM)
[4]
  MIC: 256 µg/mL (≈ 358 µM)
[5]
  Ki: 1.76 µM

## NS(=O)(=O)c1ccc(NC(=[Se])NC(=O)c2ccccc2)cc1 [7a]
[1]
  Ki: 44.8 µM
[6]
  Ki: 3.85 µM
[7]
  MIC: 128 µg/mL (≈ 335 µM)
[8]
  MIC: 32 µg/mL (≈ 83.7 µM)
[2]
  MIC: 0.5 µg/mL (≈ 1.31 µM)
[3]
  MIC: 0.85 ± 0.36 µg/mL (≈ 2.22 µM)
[4]
  MIC: 14.7 ± 3.26 µg/mL (≈ 38.5 µM)

## O=C(NC(=[Se])Nc1ccccc1)c1ccccc1 [16a]
[1]
  Ki: > 10 µM
[2]
  MIC: 0.8 ± 0.29 µg/mL (≈ 2.64 µM)
[3]
  MIC: 0.8 ± 0.6 µg/mL (≈ 2.64 µM)
[4]
  MIC: 29.3 ± 18.7 µg/mL (≈ 96.6 µM)
[5]
  Ki: > 10 µM

## O=C(NC(=[Se])Nc1ccccc1F)c1ccccc1 [16c]
[1]
  Ki: > 10 µM
[2]
  MIC: 1 µg/mL (≈ 3.11 µM)
[3]
  MIC: 2 µg/mL (≈ 6.23 µM)
[4]
  MIC: 64 µg/mL (≈ 199 µM)
[5]
  Ki: > 10 µM

## NS(=O)(=O)c1ccc(NC(=S)Nc2ccccc2F)cc1 [14b]
[1]
  Ki: 0.488 µM
[7]
  MIC: > 256 µg/mL
[8]
  MIC: > 256 µg/mL
[2]
  MIC: > 256 µg/mL
[3]
  MIC: > 256 µg/mL
[4]
  MIC: > 256 µg/mL
[5]
  Ki: 5.49 µM

## O=C(NC(=[Se])Nc1c(F)c(F)cc(F)c1F)c1ccccc1 [16d]
[1]
  Ki: > 10 µM
[2]
  MIC: 1 µg/mL (≈ 2.67 µM)
[3]
  MIC: 2.7 ± 1.15 µg/mL (≈ 7.2 µM)
[4]
  MIC: > 256 µg/mL
[5]
  Ki: > 10 µM

## Cc1cccc(C(=O)NC(=[Se])Nc2cc(S(N)(=O)=O)ccc2O)c1 [11j]
[1]
  Ki: 14.8 µM
[2]
  MIC: 0.5 µg/mL (≈ 1.21 µM)
[3]
  MIC: 16 ± 8.76 µg/mL (≈ 38.8 µM)
[4]
  MIC: 128 µg/mL (≈ 310 µM)
[5]
  Ki: 5.64 µM

## O=C(NC(=[Se])Nc1ccccc1)c1cc(Br)cc(OC(F)(F)F)c1 [16b]
[1]
  Ki: > 10 µM
[2]
  MIC: 1 µg/mL (≈ 2.15 µM)
[3]
  MIC: 10.7 ± 4.62 µg/mL (≈ 23 µM)
[4]
  MIC: 341 ± 148 µg/mL (≈ 732 µM)
[5]
  Ki: > 10 µM

## NS(=O)(=O)c1ccc(NC(=[Se])NC(=O)c2ccc3c(c2)OCO3)cc1 [7b]
[1]
  Ki: 20.4 µM
[6]
  Ki: 4.86 µM
[7]
  MIC: 128 µg/mL (≈ 300 µM)
[8]
  MIC: 16 µg/mL (≈ 37.5 µM)
[2]
  MIC: 0.5 µg/mL (≈ 1.17 µM)
[3]
  MIC: 0.5 µg/mL (≈ 1.17 µM)
[4]
  MIC: 16 ± 8.76 µg/mL (≈ 37.5 µM)

## NS(=O)(=O)c1ccc(NC(=[Se])Nc2ccccc2)cc1 [3a]
[1]
  Ki: 0.514 µM
[6]
  Ki: 0.599 µM
[7]
  MIC: 64 µg/mL (≈ 181 µM)
[8]
  MIC: 10.7 µg/mL (≈ 30.2 µM)
[2]
  MIC: 0.5 µg/mL (≈ 1.41 µM)
[3]
  MIC: 0.5 µg/mL (≈ 1.41 µM)
[4]
  MIC: 4.3 ± 1.97 µg/mL (≈ 12.1 µM)

## NS(=O)(=O)c1ccc(CCNC(=[Se])NC(=O)c2ccc3c(c2)OCO3)cc1 [9c]
[1]
  Ki: 55.9 µM
[6]
  Ki: 1.78 µM
[7]
  MIC: > 256 µg/mL
[8]
  MIC: > 256 µg/mL
[2]
  MIC: 1 µg/mL (≈ 2.2 µM)
[3]
  MIC: 2 ± 1.37 µg/mL (≈ 4.4 µM)
[4]
  MIC: 37.3 ± 13.1 µg/mL (≈ 82.1 µM)

## C[C@@H]1[C@H](O)[C@@H](C)/C=C/C=C/C=C/C=C/C=C/C=C/C=C/[C@H](O[C@@H]2O[C@H](C)[C@@H](O)[C@H](N)[C@@H]2O)C[C@@H]2O[C@](O)(C[C@@H](O)C[C@@H](O)[C@H](O)CC[C@@H](O)C[C@@H](O)CC(=O)O[C@H]1C)C[C@H](O)[C@H]2C(=O)O [Amphotericin B]
[7]
  MIC: 0.24 ± 1 µg/mL (≈ 0.26 µM)
[8]
  MIC: 0.98 µg/mL (≈ 1.06 µM)
[2]
  MIC: 0.43 ± 0.12 µg/mL (≈ 0.465 µM)
[3]
  MIC: 1.95 µg/mL (≈ 2.11 µM)
[4]
  MIC: 125 µg/mL (≈ 135 µM)

## NS(=O)(=O)c1ccc(NC(=[Se])Nc2ccccc2F)cc1 [3c]
[1]
  Ki: 0.152 µM
[6]
  Ki: 0.721 µM
[7]
  MIC: 341 µg/mL (≈ 917 µM)
[8]
  MIC: 64 µg/mL (≈ 172 µM)
[2]
  MIC: 64 µg/mL (≈ 172 µM)
[3]
  MIC: 16 µg/mL (≈ 43 µM)
[4]
  MIC: > 256 µg/mL

## Fc1ccccc1NC(=S)Nc1ccccc1 [14d]
[1]
  Ki: > 10 µM
[2]
  MIC: > 256 µg/mL
[3]
  MIC: 128 µg/mL (≈ 520 µM)
[4]
  MIC: > 256 µg/mL
[5]
  Ki: > 10 µM

## CC(=O)Oc1ccccc1C(=O)NC(=[Se])Nc1ccc(S(N)(=O)=O)cc1 [7d]
[1]
  Ki: 66.8 µM
[6]
  Ki: 5.88 µM
[7]
  MIC: 128 µg/mL (≈ 291 µM)
[8]
  MIC: 64 µg/mL (≈ 145 µM)
[2]
  MIC: 3.33 ± 1.15 µg/mL (≈ 7.56 µM)
[3]
  MIC: 2.7 ± 1.15 µg/mL (≈ 6.13 µM)
[4]
  MIC: 256 µg/mL (≈ 581 µM)

## CC(=O)Oc1ccccc1C(=O)NC(=[Se])Nc1cc(S(N)(=O)=O)ccc1O [11e]
[1]
  Ki: 33.8 µM
[6]
  Ki: 4.73 µM
[7]
  MIC: 256 µg/mL (≈ 561 µM)
[8]
  MIC: 256 µg/mL (≈ 561 µM)
[2]
  MIC: 0.5 µg/mL (≈ 1.1 µM)
[3]
  MIC: 0.75 ± 0.67 µg/mL (≈ 1.64 µM)
[4]
  MIC: 6.7 ± 2.1 µg/mL (≈ 14.7 µM)

## NS(=O)(=O)c1ccc(NC(=[Se])NC(=O)c2cc(Br)cc(OC(F)(F)F)c2)cc1 [7c]
[1]
  Ki: 83.5 µM
[6]
  Ki: 4.3 µM
[7]
  MIC: 64 µg/mL (≈ 117 µM)
[8]
  MIC: 8 µg/mL (≈ 14.7 µM)
[2]
  MIC: 0.5 µg/mL (≈ 0.917 µM)
[3]
  MIC: 4 µg/mL (≈ 7.34 µM)
[4]
  MIC: 128 µg/mL (≈ 235 µM)

## O=C(Nc1ccccc1)Nc1ccccc1F [14c]
[1]
  Ki: > 10 µM
[2]
  MIC: > 256 µg/mL
[3]
  MIC: > 256 µg/mL
[4]
  MIC: > 256 µg/mL
[5]
  Ki: > 10 µM

## NS(=O)(=O)c1ccc(CCNC(=[Se])Nc2ccccc2F)cc1 [5b]
[1]
  Ki: 0.149 µM
[6]
  Ki: 0.633 µM
[7]
  MIC: 107 µg/mL (≈ 267 µM)
[8]
  MIC: 3.3 µg/mL (≈ 8.24 µM)
[2]
  MIC: 0.25 µg/mL (≈ 0.624 µM)
[3]
  MIC: 1 µg/mL (≈ 2.5 µM)
[4]
  MIC: 9 ± 5.9 µg/mL (≈ 22.5 µM)

## CC(=O)N1CCN(c2ccc(OC[C@@H]3CO[C@@](Cn4ccnc4)(c4ccc(Cl)cc4Cl)O3)cc2)CC1 (racemic) [Ketoconazole]
[7]
  MIC: 0.05 ± 0.02 µg/mL (≈ 0.0941 µM)
[8]
  MIC: 96 ± 37 µg/mL (≈ 181 µM)
[2]
  MIC: 0.03 µg/mL (≈ 0.0565 µM)
[3]
  MIC: 0.25 µg/mL (≈ 0.47 µM)
[4]
  MIC: 0.25 µg/mL (≈ 0.47 µM)
